Results taken from patent US12251400B2, “Liquid concentrates of calcium and magnesium” (BIOLINK LIFE SCIENCES, INC., priority 2019, dated 2025).

Experiment: In vitro assessment of phosphate binding
Settings: 24 hours post-mixing
Method: Test Preparations: Solutions of the test article (calcium propionate and magnesium propionate) and control article (calcium acetate) are prepared in deionized, purified water having 18 MO or greater resistance. The pH of each solution is adjusted to the desired value by the addition of concentrated hydrochloric acid or sodium hydroxide, as appropriate.
Tests and Assays: An HPLC method with conductivity detection was developed and validated for use in the determination of propionate, acetate and phosphate. HPLC analysis is performed using a Dionex Aquion ion chromatography system Detection of the anionic species is enabled using a Dionex ED50 Electrochemical Detector, operating in Conductivity Mode. Limits of Detection and Quantitation are enhanced through the use of a Dionex Anion Self-Regenerating Suppressor. After assay-specific development and verification of assay performance is completed, the analysis of phosphate and propionate or acetate is performed by sampling the test solution and diluting it, if necessary, to a concentration within the linear range of the Assay. The sample is then injected onto the HPLC column and eluted with a sodium hydroxide gradient. Data is acquired using Dionex Chromeleon® software. […]

CC(=O)[O-].CC(=O)[O-].[Ca+2] [calcium acetate]
Pi binding (pH 4.5): about 60%
Pi binding (pH 6.8): over 90%
